Source: patent US20090180958A1, “Diagnostic and therapeutic agents” (Karyon-CTT Ltd., priority 2005, published 2009)

How the values were obtained:
[1] = tested on: A549, NCI-H23, NCI-H520, NCI-H460, C8161/M1, HeLa, NIH3T3, E10V, SVEC4-10 cell lines; test: Cytotoxicity assay (MTT); type: cell-based; conditions: 7.5 μg/ml, after 1 h treatment; positive control
Method: In this assay cell lines were exposed to two different concentrations (50 μg/and 500 μg/ml) of IS257 targeting unit (described in Example 3) for two to three days to test the toxicity of the peptides. The measurement of cell viability was done with MTT (Thiazolyl blue, Sigma M-5655 ) tetrazolium salt. MTT is cleaved to water-insoluble formazan dye by the “succinate-tetrazolium reductase” system which is active only in viable cells. After formazan was solubilized by 10% SDS-0.01 M HCl, it was quantified in an ELISA spectrometer (ThermoLabsystems Multiscan EX) at 560 nm. CuSAO2 [trans-bis(salicylaldoximato) copper(II)] (Elo HO, Lumme PO., 1985) 7.5 μg/ml was used as a positive control for 100% toxicity.
Procedure. Cells were trypsinized from the cell culture dish (ø9 cm) with 1 ml of TE for 1-5 minutes and moved to a 50 ml Falcon tube. […]
Then 40 μl of IS257 targeting unit in appropriate medium were added to the wells in two concentrations, so that final concentrations were 50 μg/ml and 500 μg/ml, and the volume of the wells was raised back to 100 μl. […] The next day the cell morphology was analyzed with a microscope. […]
The next day, the MTT assay described above was performed. The viable count (v.c.) was calculated as:
Average toxicated cell absorbance−Average DMEM absorbance=Viable count Average living cell absorbance−Average DMEM absorbance […]

human lung tumor tissue = conditions: enriched peptide sequences collected from ex vivo panning rounds four to six
Source text: Phage display libraries. Standard procedures according to Smith and Scott (1993) were used. Phage display libraries used for screening of clinical samples were cloned in fUSE5 vectors and were of the structure X7 and X10, thus they were linear containing seven or ten random amino acids. The libraries were used separately or as a mixture. The E. coli strain K91kan was used as host for phage amplification.
Subtractional panning. Bio-panning was started with depletion of phage clones binding to normal lung. Normal lung tissue taken from surgical lung resection, removed during dissection of tumor, was placed in ice cold DMEM (Dulbecco's medium) containing protease inhibitors (PI); 10 mM PMSF ([…]), Aprotinin (10 mg/ml) Leupeptin (10 mg/ml). Tissue samples were minced with a razor blade in a small cell culture plate in 1 ml of DMEM-PI. The samples were transferred to an eppendorf tube and washed with 1 ml DMEM-PI.
Samples were centrifuged at 4000 rpm for 5 min and were then incubated with 10^10 transforming units (TU) of phage (from one or more peptide libraries) in 1 ml DMEM-PI at 25° C. for 45 min. After this the samples were washed three times with DMEM-PI containing 1% BSA (bovine serum albumin).
Phage display on clinical tumor samples. Tissue samples were surgically removed from primary tumors of non-small cell lung cancer patients and placed in ice DMEM-PI. Part of sample was taken for pathological examination. The type and nature of the tumor samples were first verified as being NSCLC. After that, specification of subtype of NSCLC and its stage was done by pathologists.
Tissue samples were minced with a razor blade in a small cell culture plate in 1 ml of DMEM containing protease inhibitors. The samples were transferred to an eppendorf tube and washed with 1 ml DMEM-PI.
Samples were centrifuged at 4000 rpm for 5 min and were then incubated with 10^10 TU of phage (from one or more peptide libraries) in iml DMEM-PI at 25° C. for 15 min. After this the samples were washed three times with DMEM-PI containing 1% BSA (bovine serum albumin).
1 ml K91kan bacteria, OD600: 1-1.5, in LB containing 100 μg/ml kanamycin (kan) were infected with the washed pellet containing selectively attached phage particles at 25° C. for 25 min. After infection volume was increased to 2 ml with LB containing 100 μg/ml kan.
Then infected bacteria were plated on LB agar plates containing 40 μg/ml tetracycline (tet) as follows: Two parallel plates of three dilutions (1:50, 1:500, 1:5000) and the rest of the above K91kan culture in 200 μl aliquots. The plates were incubated overnight at +37° C.
The following day 24-48 colonies were picked from the LBtet plates into 96-well micro-plates for sequencing of the phage DNA. Alternatively the clones were stored for later analysis at −20° C.
Monitoring of enrichment of peptides.

NSCLC cell line NCI-H520 = conditions: wells coated at 30 μg/ml, 75000 cells, 30 minutes at 37° C.
Method: (§1) Preparation of plates for assays. Wells of Reacti-Bind Maleimide activated clear strip plate (Pierce, Prod#. 15150) were coated with targeting agents of this invention at a concentration of 30 μg/ml. The incubation was carried out of overnight at 20° C. The binding buffer containing unbound peptide was removed from the wells.
(§2) The wells were blocked with blocking buffer (1.0% BSA, 0.05% Tween20 in phosphate buffer saline (PBS) pH 7.0. PBS was prepared as follows: […] of NaCl, 1 g of KCl, 7 g of Na2HPO4×2H2O and 1 g of KH2PO4 were dissolved to 1000 ml of deionized H2O). Blank wells as controls were prepared by treating empty wells with blocking buffer. The plates were incubated 1 hour 30 min at 20° C.
(§3) After incubation the plate was washed three times with PBS. Cell binding assays. 75000 cells in volume of 150 μl of medium were added into coated wells and were incubated for 30 minutes at 37° C. After cell binding, the wells were washed with PBS for 30 minutes. Detection of targeting agent bound cells were based on the MTT assay (described in detail in Example 23, Cytotoxicity). 10 μl of MTT reagent and 90 μl of medium were added to the wells. The plate was incubated for three hours at +37° C. After the incubation, 100 μl of lysis buffer was added to the wells and let to incubated o/n 37° C. On following day the absorbance of plate was measured at 560 nm with ELISA-reader (ThermoLabsystems, multiskan EX).
(§4) Cell lines NCI-H23, NCI-H520, A549, HeLa and NIH3T3 (described in Example 18) and targeting agents HP199, HP201 and HP205 (described in Examples 5, 6, 17) were used in the cell binding.
(§5) The results are shown as measured absorbance at 560 nm.

NSCLC cell line A549 = conditions: wells coated at 30 μg/ml, 75000 cells, 30 minutes at 37° C.
Method: as §1, §2, §3, §4, §5

NSCLC cell line NCI-H23 = conditions: wells coated at 30 μg/ml, 75000 cells, 30 minutes at 37° C.
Method: as §1, §2, §3, §4, §5

[2] = tested on: NIH3T3, mouse fibroblast cell line; conditions: wells coated at 30 μg/ml; 75000 cells, 30 minutes at 37° C.; control cell line NIH3T3
Method: as §1, §2, §3, §4, §5

[3] = tested on: PASMC, human primary pulmonary artery smooth muscle cell line; conditions: wells coated at 30 μg/ml; 75000 cells, 30 minutes at 37° C.; control cell line PASMC
Method: as §1, §2, §3, §4, §5

HeLa cells = conditions: 50 μg/ml in PBS, pH 7.4; methanol-fixed HeLa cells
Method: (§8) A549 cells and HeLa cells (described in Example 18) were grown on glass slides, washed with PBS and then fixed with methanol. The fluorescent targeting agent F5M-A49 (described in Example 10) was used to stain these cells as follows: Cells were first blocked with blocking buffer (1.0% BSA, 0.05% Tween20 in PBS, pH 7.4) for one hour at 20° C. The cells on the glass slides were incubated with 20 μl of F5M-A49 targeting agent (50 μg/ml in PBS, pH 7.4). As control, binding of F5M-A49 was competed with 20 μl of IS257 targeting unit (free peptide described in Example 3), 500 μg/ml in PBS, pH 7.4) prior to addition of the targeting agent. As negative controls, cells not incubated with any targeting agent were used. After the staining the cells were mounted on object glasses with mountex (Histolab Products Ltd). After this cells were viewed under a fluorescent microscope (Carl Zeiss Microscopy, Jena, Germany).

A549 cells = test: Fluorescent targeting agent staining of fixed cells; type: cell-based, human; conditions: 50 μg/ml in PBS, pH 7.4; methanol-fixed A549 cells
Method: as §8

PASMC = conditions: 5 pM, 30 min at 37° C.; control cell line PASMC
Method: (§6) 5000 cells, A549, NCI-H23, NCI-H520, NCI-H460, and control cells PASMC and HeLa (described in Example 18), are grown in multi-well plates, according to the conditions described in Example 18.
(§7) After 30 min of incubation cells are washed 5 times with PBS. PBS is removed and cells are lysed by shaking in Inducer Solution (Perkin-Elmer Ltd) for 15 min. After this, fluorescence is measured by time resolved fluorescence using a Victor III fluorometer (Perkin-Elmer Ltd).

HeLa = conditions: 5 pM, 30 min at 37° C.; control cell line HeLa
Method: as §6, §7

[Cu+2].[O-]c1ccccc1C=NO.[O-]c1ccccc1C=NO [CuSAO2, trans-bis(salicylaldoximato) copper(II), reference compound]
cell killing [1]: 100%

ARAPGVMPTT
Frequency (human lung tumor tissue): 2

ARLPQVELSA
Frequency (human lung tumor tissue): 3

ARMPPRS
Frequency (human lung tumor tissue): 2

ARPPKGVNWT
Frequency (human lung tumor tissue): 3

ARRPKLD [Ala-Arg-Arg-Pro-Lys-Leu-Asp]
Frequency (human lung tumor tissue): 22

Ac-ARRPKLD-GAAG-PEG-G3-EAT [HP201]
binding of cells to immobilized targeting agent (absorbance at 560 nm) (NSCLC cell line NCI-H520): bind selectively | binding of cells to immobilized targeting agent (absorbance at 560 nm) (NSCLC cell line A549): bind selectively | binding of cells to immobilized targeting agent (absorbance at 560 nm) (NSCLC cell line NCI-H23): bind selectively | binding of cells to immobilized targeting agent (absorbance at 560 nm) [2]: do not | binding of cells to immobilized targeting agent (absorbance at 560 nm) [3]: do not

Ala-Asp-Gly-Ala-Ala-Arg-Arg-Pro-Lys-Leu-Asp-Gly-Ala-Ala-Gly-NH—CH2CH2—O—CH2CH2—O—CH2CH2—O—CH2—C(O)-Gly-Gly-Gly-NHCH2CH2SH [HP199]
binding of cells to immobilized targeting agent (absorbance at 560 nm) (NSCLC cell line NCI-H520): bind selectively | binding of cells to immobilized targeting agent (absorbance at 560 nm) (NSCLC cell line A549): bind selectively | binding of cells to immobilized targeting agent (absorbance at 560 nm) (NSCLC cell line NCI-H23): bind selectively | binding of cells to immobilized targeting agent (absorbance at 560 nm) [2]: do not | binding of cells to immobilized targeting agent (absorbance at 560 nm) [3]: do not

CH3C(O)-Ala-Arg-Arg-Pro-Lys-Leu-Asp-Gly-Ala-Ala-Gly-NH—(CH2)3—(O—CH2CH2)3—CH2—NH—C(O)CH2CH2—C(O)—NHCH2CH2S—C2H3(COOH)—C(O)—NH—(C20H11O5) [F5M-A49]
staining of cells (fluorescent microscope) (HeLa cells): no staining | staining of cells (fluorescent microscope) (A549 cells): strong staining

CH3C(O)-Ala-Arg-Arg-Pro-Lys-Leu-Asp-Gly-Ala-NHCH2CH2S-p-CH2CONH-benzyl-DTPA europium chelate [A48-Eu]
binding of targeting agent to cells (PASMC): no binding | binding of targeting agent to cells (HeLa): no binding

H-Ala-Asp-Gly-Ala-asp-Pro-Leu-Lys-Arg-Ala-Arg-Gly-Ala-Ala-Gly-NH-CH2CH2—O—CH2CH2—O—CH2CH2—O—CH2—C(O)-Gly3-NHCH2CH2SH [HP205, reference compound]
binding of cells to immobilized targeting agent (absorbance at 560 nm) (NSCLC cell line NCI-H520): do not bind | binding of cells to immobilized targeting agent (absorbance at 560 nm) (NSCLC cell line A549): do not bind | binding of cells to immobilized targeting agent (absorbance at 560 nm) (NSCLC cell line NCI-H23): do not bind

SRAPNSVQHD
Frequency (human lung tumor tissue): 2

SRAPVAP
Frequency (human lung tumor tissue): 2

SRLPSAGTFQ
Frequency (human lung tumor tissue): 2

SRNPGLLTVR
Frequency (human lung tumor tissue): 2
